This note sets out measurements from patent US10150743B2, “Carboxylic acid compounds” (priority 2012, dated 2018).

The target in one assay is human TLR7 (Homo sapiens (Human), UniProt Q9NYK1). Nature of the assay: Human TLR7 assay (SEAP reporter in HEK293). To be noted: SEAP induction, overnight incubation at 37° C., 0.1% DMSO; read-out: TLR7 (pEC50) (converted). In kind it is cell-based. From the text:
Recombinant human TLR7 was stably expressed in a HEK293 cell line already stably expressing the pNiFty2-SEAP reporter plasmid; integration of the reporter gene was maintained by selection with the antibiotic zeocin. The most common variant sequence of human TLR7 (represented by the EMBL sequence AF240467) was cloned into the mammalian cell expression vector pUNO and transfected into this reporter cell-line. Transfectants with stable expression were selected using the antibiotic blasticidin. In this reporter cell-line, expression of secreted alkaline phosphatase (SEAP) is controlled by an NFkB/ELAM-1 composite promoter comprising five NFkB sites combined with the proximal ELAM-1 promoter. TLR signaling leads to the translocation of NFkB and activation of the promoter results in expression of the SEAP gene. TLR7-specific activation was assessed by determining the level of SEAP produced following overnight incubation of the cells at 37° C. with the standard compound in the presence of 0.1% (v/v) dimethylsulfoxide (DMSO). Concentration dependent induction of SEAP production by compounds was expressed as the concentration of compound which produced half of the maximal level of SEAP induction for that compound (EC50).

A further assay deals with hERG ion channel (Homo sapiens (Human), UniProt Q12809). Nature of the assay: hERG Analysis - Method 1 (IONWORKS HT, CHO-hERG cells). In kind it is cell-based. To be noted: ~21° C. On the procedure: The hERG-expressing Chinese hamster ovary K1 (CHO) cells described by (Persson, Carlsson, Duker, & Jacobson, 2005) were grown to semi-confluence at 37° C. in a humidified environment (5% CO2) in F-12 Ham medium containing L-glutamine, 10% foetal calf serum (FCS) and 0.6 mg/mL hygromycin (all available from Sigma-Aldrich). Prior to use, the monolayer was washed using a pre-warmed (37° C.) 3 mL aliquot of Versene 1:5,000 (Invitrogen) After aspiration of this solution the flask was incubated at 37° C. in an incubator with a further 2 mL of Versene 1:5,000 for a period of 6 minutes. Cells were then detached from the bottom of the flask by gentle tapping and 10 mL of Dulbecco's Phosphate-Buffered Saline containing calcium (0.9 mM) and magnesium (0.5 mM) (PBS; Invitrogen) was then added to the flask and aspirated into a 15 mL centrifuge tube prior to centrifugation (50 g, for 4 mins). The resulting supernatant was discarded and the pellet gently re-suspended in 3 mL of PBS. A 0.5 mL aliquot of cell suspension was removed and the number of viable cells (based on trypan blue exclusion) was determined in an automated reader (Cedex; Innovatis) so that the cell re-suspension volume can be adjusted with PBS to give the desired final cell concentration. It is the cell concentration at this point in the assay that is quoted when referring to this parameter. CHO-Kv1.5 cells, which were used to adjust the voltage offset on IONWORKS™ HT, were maintained and prepared for use in the same way.
Sequence of hERG ion channel (Q12809 whole entry): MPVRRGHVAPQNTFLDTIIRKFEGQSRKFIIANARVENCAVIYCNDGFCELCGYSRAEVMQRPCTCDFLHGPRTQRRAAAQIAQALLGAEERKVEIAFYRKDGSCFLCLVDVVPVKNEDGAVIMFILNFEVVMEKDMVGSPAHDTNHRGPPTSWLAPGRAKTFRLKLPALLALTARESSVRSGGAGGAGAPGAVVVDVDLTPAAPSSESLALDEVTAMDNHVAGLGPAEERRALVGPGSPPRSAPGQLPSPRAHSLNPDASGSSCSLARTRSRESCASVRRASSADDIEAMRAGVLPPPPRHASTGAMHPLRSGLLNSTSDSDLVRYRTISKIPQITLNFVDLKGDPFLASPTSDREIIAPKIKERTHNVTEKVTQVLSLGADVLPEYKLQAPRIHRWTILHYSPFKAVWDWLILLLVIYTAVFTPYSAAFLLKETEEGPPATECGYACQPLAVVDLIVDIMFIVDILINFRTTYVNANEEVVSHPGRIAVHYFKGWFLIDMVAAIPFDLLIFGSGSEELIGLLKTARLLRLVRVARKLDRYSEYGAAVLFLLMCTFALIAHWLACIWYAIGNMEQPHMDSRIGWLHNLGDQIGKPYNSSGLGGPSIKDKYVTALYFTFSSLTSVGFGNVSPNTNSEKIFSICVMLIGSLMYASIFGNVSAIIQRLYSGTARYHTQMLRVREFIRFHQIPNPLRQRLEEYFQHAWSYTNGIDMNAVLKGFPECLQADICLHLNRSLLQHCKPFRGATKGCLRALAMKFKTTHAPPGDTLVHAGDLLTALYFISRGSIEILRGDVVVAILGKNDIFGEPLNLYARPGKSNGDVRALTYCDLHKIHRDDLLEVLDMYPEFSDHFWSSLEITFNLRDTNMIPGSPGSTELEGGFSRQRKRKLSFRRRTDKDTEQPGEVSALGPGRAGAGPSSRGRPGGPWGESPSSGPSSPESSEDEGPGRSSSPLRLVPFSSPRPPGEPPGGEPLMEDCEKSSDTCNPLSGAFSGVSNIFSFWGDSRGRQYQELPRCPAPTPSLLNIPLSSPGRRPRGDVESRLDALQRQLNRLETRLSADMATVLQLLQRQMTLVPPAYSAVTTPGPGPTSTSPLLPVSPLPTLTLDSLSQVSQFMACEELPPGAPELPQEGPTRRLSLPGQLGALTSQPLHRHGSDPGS
The principles and operation of this device have been described by (Schroeder, Neagle, Trezise, & Worley, 2003). Briefly, the technology is based on a 384-well plate (PATCHPLATE™) in which a recording was attempted in each well by using suction to position and hold a cell on a small hole separating two isolated fluid chambers. Once sealing had taken place, the solution on the underside of the PATCHPLATE™ was changed to one containing amphotericin B. This permeablises the patch of cell membrane covering the hole in each well and, in effect, allowed a perforated, whole-cell patch clamp recording to be made.
A β-test IONWORKS™ HT from Essen Instrument was used. […] (˜21° C.), as follows. The reservoir in the “Buffer” position was loaded with 4 mL of PBS and that in the “Cells” position with the CHO-hERG cell suspension described above. A 96-well plate (V-bottom, Greiner Bio-one) containing the compounds to be tested (at 3-fold above their final test concentration) was placed in the “Plate 1” position and a PATCHPLATE™ was clamped into the PATCHPLATE™ station. […]
On the technique in general: Block of hERG is tested as a sign of cardiac risk.

The next assay relates to Renca mouse tumour cells. Nature of the assay: Tumour growth studies in Renca, a murine syngeneic renal carcinoma tumour model. To be noted: Balb/C mice, 0.3 mg/kg once a week p.o. on days 1, 8, 15; vs 0.5% methylcellulose; FIG. 9. In kind it is in vivo. How it is done: Experiments were conducted on female mice (Balb/C genotype, at least 5 weeks old). Renca mouse tumour cells (Cancer Chemother Pharmacol. 1995; 36 (1): 7-12) were kindly provided by Dr. T. Fujioka at Department of Urology, Iwate Medical University School of Medicine. Renca mouse tumour cells (5×10^4) were implanted subcutaneously in the flank of mice on day 0. Mice were treated with either drug vehicle (0.5% methylcellulose), the compound of Example 3 (0.3 mg/kg once a week) or the compound of Example 4 (3 mg/kg once a week) administered orally (p. o.) on days 1, 8, and 15. Tumour volumes were assessed at least twice weekly by bilateral vernier caliper measurements.
Tumour growth inhibition from the start of treatment was assessed by comparison of the differences in tumour growth rate between control and the compound of Example 3 treated groups, as shown in FIG. 9.
Tumour growth inhibition from the start of treatment was assessed by comparison of the differences in tumour growth rate between control and the compound of the Example 4 treated groups, as shown in FIG. 10.

Sequence of human TLR7 (Q9NYK1 27-1049): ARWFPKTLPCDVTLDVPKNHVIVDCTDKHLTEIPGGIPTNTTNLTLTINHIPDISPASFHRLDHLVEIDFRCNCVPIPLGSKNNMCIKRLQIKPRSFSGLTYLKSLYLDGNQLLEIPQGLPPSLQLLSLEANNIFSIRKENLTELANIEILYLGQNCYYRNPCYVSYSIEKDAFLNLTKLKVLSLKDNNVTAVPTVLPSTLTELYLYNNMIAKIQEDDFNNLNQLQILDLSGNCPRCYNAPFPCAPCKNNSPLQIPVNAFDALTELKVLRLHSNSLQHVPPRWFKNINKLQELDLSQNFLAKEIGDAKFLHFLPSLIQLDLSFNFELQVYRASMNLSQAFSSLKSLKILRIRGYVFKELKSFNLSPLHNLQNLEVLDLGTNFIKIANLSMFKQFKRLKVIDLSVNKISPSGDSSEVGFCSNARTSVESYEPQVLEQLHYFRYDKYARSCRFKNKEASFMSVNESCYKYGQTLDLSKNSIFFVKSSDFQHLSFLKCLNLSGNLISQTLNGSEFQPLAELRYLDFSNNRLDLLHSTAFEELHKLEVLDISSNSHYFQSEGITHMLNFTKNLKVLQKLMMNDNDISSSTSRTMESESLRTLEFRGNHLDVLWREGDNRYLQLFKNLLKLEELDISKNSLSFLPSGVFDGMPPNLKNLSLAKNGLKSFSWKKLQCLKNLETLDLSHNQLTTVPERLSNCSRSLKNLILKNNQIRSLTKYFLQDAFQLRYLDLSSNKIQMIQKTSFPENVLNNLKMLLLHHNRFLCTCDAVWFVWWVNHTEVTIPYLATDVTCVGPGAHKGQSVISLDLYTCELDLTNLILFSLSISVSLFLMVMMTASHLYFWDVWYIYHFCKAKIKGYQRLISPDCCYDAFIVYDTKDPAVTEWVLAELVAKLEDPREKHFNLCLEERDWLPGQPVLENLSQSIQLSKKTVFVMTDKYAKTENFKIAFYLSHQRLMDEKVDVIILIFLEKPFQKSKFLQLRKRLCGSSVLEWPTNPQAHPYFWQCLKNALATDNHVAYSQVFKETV

A word on the IC50: it is the midpoint of a concentration-inhibition curve. Higher therefore signals weaker potency. Take `CCC[C@@H](CCO)Nc1nc(N)nc(C)c1Cc1ccc(CN(CC(=O)O)CC(F)F)cc1OC` [Example 3, (S)-2-((4-((2-amino-4-(1-hydroxyhexan-3-ylamino)-6-methylpyrimidin-5-yl)methyl)-3-methoxybenzyl)(2,2-difluoroethyl)amino)acetic acid]: on human TLR7, the EC50 is 79.4 nM. The IC50 against hERG ion channel was > 33000 nM. Moreover, in the assay with Renca mouse tumour cells, the Tumour growth inhibition result is “inhibited tumour growth”.
